Source: patent publication US9211238B2, “Carrier system for the transport of active substances into the skin” (priority 2010, dated 2015)

Experiment: Anti-oxidative potential (AP) in vitro, test radical DPPH, ESR spectroscopy
Assay type: biochemical
Conditions: 1% ferulic acid
Method: The anti-oxidative potential (AP) of all described formulations was determined in vitro. In this method the formulations were incubated with a test radical (DPPH) and afterwards the reduction of these radicals over the time was measured by ESR (electron spin resonance spectroscopy). AP=amount of free radicals/mg of tested substance*minute.

Structure (SMILES): COc1cc(/C=C/C(=O)O)ccc1O [1% ferulic acid (EtOH/water), ferulic acid]
- anti-oxidative potential (AP): AP = 723 amount of free radicals/mg of tested substance*minute
